One assay concerns the target human FPR2 (Homo sapiens (Human), UniProt P25090). Briefly: FPR2 cyclic adenosine monophosphate (cAMP) assay. As to conditions: CHO cells overexpressing human FPR2; forskolin 5 μM, IBMX 200 μM; inhibition of cAMP production, HTRF; read-out: hFPR2 cAMP2 EC50. It counts as cell-based. Here is the method:
(§1) FPR2 and FPR1 Cyclic Adenosine Monophosphate (cAMP) Assays. A mixture of forskolin (5 μM final for FPR2 or 10 μM final for FPR1) and IBMX (200 μM final) were added to 384-well Proxiplates (Perkin-Elmer) pre-dotted with test compounds in DMSO (1% final) at final concentrations in the range of 0.020 nM to 100 μM. Chinese Hamster Ovary cells (CHO) overexpressing human FPR1 or human FPR2 receptors were cultured in F-12 (Ham's) medium supplemented with 10% qualified FBS, 250 μg/ml zeocin and 300 μg/ml hygromycin (Life Technologies). Reactions were initiated by adding 2,000 human FPR2 cells per well or 4,000 human FPR1 cells per well in Dulbecco's PBS (with calcium and magnesium) (Life Technologies) supplemented with 0.1% BSA (Perkin-Elmer). The reaction mixtures were incubated for 30 min at room temperature. The level of intracellular cAMP was determined using the HTRF HiRange cAMP assay reagent kit (Cisbio) according to manufacturer's instruction. Solutions of cryptate conjugated anti-cAMP and d2 fluorophore-labelled cAMP were made in a supplied lysis buffer separately. Upon completion of the reaction, the cells were lysed with equal volume of the d2-cAMP solution and anti-cAMP solution. After a 1-h room temperature incubation, time-resolved fluorescence intensity was measured using the Envision (Perkin-Elmer) at 400 nm excitation and dual emission at 590 nm and 665 nm. A calibration curve was constructed with an external cAMP standard at concentrations ranging from 1 μM to 0.1 pM by plotting the fluorescent intensity ratio from 665 nm emission to the intensity from the 590 nm emission against cAMP concentrations. The potency and activity of a compound to inhibit cAMP production was then determined by fitting to a 4-parametric logistic equation from a plot of cAMP level versus compound concentrations.

The target of another assay is human FPR1 (Homo sapiens (Human), UniProt P21462). Briefly: FPR1 cyclic adenosine monophosphate (cAMP) assay. As to conditions: CHO cells overexpressing human FPR1; forskolin 10 μM, IBMX 200 μM; inhibition of cAMP production, HTRF; read-out: hFPR1 cAMP EC50. It counts as cell-based. Here is the method: as §1, with “After a 1-h room temperature incubation, time-resolved fluorescence intensity was measured using the Envision (Perkin-Elmer) at 400 nm excitation and dual emission at 590 nm and 665 nm. A calibration curve was constructed with an external cAMP standard at concentrations ranging from 1 μM to 0.1 pM by plotting the fluorescent intensity ratio from 665 nm emission to the intensity from the 590 nm emission against cAMP concentrations.” left out
human FPR1, sequence (P21462 whole entry): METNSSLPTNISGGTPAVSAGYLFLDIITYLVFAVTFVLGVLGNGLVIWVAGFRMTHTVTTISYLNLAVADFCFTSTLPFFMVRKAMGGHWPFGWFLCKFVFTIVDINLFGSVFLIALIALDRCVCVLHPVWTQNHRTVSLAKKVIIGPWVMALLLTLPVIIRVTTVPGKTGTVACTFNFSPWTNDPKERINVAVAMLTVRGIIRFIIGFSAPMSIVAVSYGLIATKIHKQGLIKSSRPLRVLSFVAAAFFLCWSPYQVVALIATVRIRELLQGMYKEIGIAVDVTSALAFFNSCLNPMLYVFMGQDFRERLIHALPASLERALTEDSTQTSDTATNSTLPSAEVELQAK

A word on the EC50: it is the concentration needed to bring the measured effect to its halfway point.

Some results are limits rather than exact numbers.

human FPR2, sequence (P25090 whole entry): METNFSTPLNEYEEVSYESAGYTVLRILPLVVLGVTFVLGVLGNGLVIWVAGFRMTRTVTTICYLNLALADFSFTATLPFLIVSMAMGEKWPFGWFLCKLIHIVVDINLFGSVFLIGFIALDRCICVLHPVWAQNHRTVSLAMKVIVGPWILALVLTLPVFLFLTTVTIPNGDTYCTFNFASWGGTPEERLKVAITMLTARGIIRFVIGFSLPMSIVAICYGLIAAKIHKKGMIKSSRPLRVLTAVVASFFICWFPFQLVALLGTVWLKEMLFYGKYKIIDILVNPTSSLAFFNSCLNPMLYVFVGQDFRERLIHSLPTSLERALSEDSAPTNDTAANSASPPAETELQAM

For the compound `CP(C)(=O)c1ccccc1-c1ccc(N2CC[C@@H](NC(=O)Nc3ccc(C(F)(F)F)cc3F)C2=O)c(F)c1C(F)(F)F` [Example 94], the EC50 at human FPR2 was 1.8 nM; on human FPR1, 12 nM.

As to `COc1ncccc1-c1ccc(N2CC[C@@H](NC(=O)Nc3ccc(Cl)cc3F)C2=O)c(F)c1F` [Example 118], the EC50 at human FPR2 amounted to 17 nM; on human FPR1, 320 nM.

As for `O=C(Nc1ccc(C(F)(F)F)cc1)N[C@@H]1CCN(c2ccc(-c3ccccc3CO)c(F)c2F)C1=O` [Example 41], the concentration giving a half-maximal response (EC50) worked out at 3.6 nM at human FPR2 and 500 nM at human FPR1.

With `CP(C)(=O)c1ccccc1-c1cc(F)c(N2CC[C@@H](NC(=O)Nc3ccc(C(F)(F)F)cc3F)C2=O)c(F)c1` [Example 76], the EC50 at human FPR2 came out at 4.1 nM; at human FPR1, 2100 nM.

As for `CP(C)(=O)c1ccccc1-c1ccc(N2CC(CO)[C@@H](NC(=O)Nc3ccc(Cl)cc3F)C2=O)c(F)c1F` (stereo partly shown) [Example 127], the EC50 was 18 nM at human FPR2 and 920 nM at human FPR1.

Regarding `CC1(C)CN(c2ccc(-c3cccnc3P(C)(C)=O)c(F)c2F)C(=O)[C@@H]1NC(=O)Nc1ccc(C(F)(F)F)cc1F` [Example 110], the values for the EC50 at human FPR2 and on human FPR1 were 1.1 nM and 640 nM, respectively.

On to `COC[C@@H]1C[C@@H](NC(=O)Nc2ccc(C(F)(F)F)cc2F)C(=O)N1c1ccc(-c2ccccc2P(C)(C)=O)c(F)c1F` [Example 90], for which the values for the EC50 at human FPR2 and at human FPR1 were 5.1 nM and 1400 nM, respectively.

In the case of `CP(C)(=O)c1ccccc1-c1ccc(N2CC[C@@H](NC(=O)Nc3ccc(Cl)cc3F)C2=O)c(F)c1C(F)(F)F` [Example 83], the values for the EC50 on human FPR2 and at human FPR1 were 0.41 nM and 0.99 nM, respectively.

As for `CP(C)(=O)c1ccccc1-c1ccc(N2CC[C@@H](NC(=O)Nc3ccc(C(F)(F)F)cn3)C2=O)c(F)c1F` [Example 64], the EC50 was determined as 8.8 nM at human FPR2 and 2900 nM on human FPR1.

For `CP(C)(=O)c1ccccc1-c1ccc(N2CC3(CC3)[C@@H](NC(=O)Nc3ccc(Cl)cc3F)C2=O)c(F)c1F` [Example 132], the EC50 on human FPR2 came to 0.48 nM; at human FPR1 it was 28 nM.

Turning to `CP(C)(=O)c1ccccc1-c1ccc(N2CC[C@@H](NC(=O)Nc3ccc(Cl)cc3F)C2=O)c(C(F)F)c1F` [Example 107], the values for the EC50 at human FPR2 and on human FPR1 were 11 nM and 5.8 nM, respectively.

With `CS(=O)(=O)Nc1ccccc1-c1ccc(N2CC[C@@H](NC(=O)Nc3cnc(Cl)cn3)C2=O)c(F)c1F` [Example 15], the EC50 on human FPR2 turned out to be 10 nM; at human FPR1 it was 1500 nM.

For `CP(C)(=O)c1ccccc1-c1ccc(N2CC(CO)[C@@H](NC(=O)Nc3ccc(C(F)(F)F)cc3F)C2=O)c(F)c1F` (stereo partly shown) [Example 124], the EC50 on human FPR2 stood at 0.79 nM; at human FPR1, 760 nM.

Regarding `CP(C)(=O)c1ccccc1-c1ccc(N2CC[C@@H](NC(=O)Nc3ccc(Cl)s3)C2=O)c(F)c1F` [Example 135], the EC50 at human FPR2 is 2.9 nM; on human FPR1, 720000 nM.

Turning to `CS(=O)(=O)c1ccccc1-c1ccc(N2CC[C@@H](NC(=O)Nc3ccc(C(F)(F)F)cc3)C2=O)c(F)c1F` [Example 11], the concentration giving a half-maximal response (EC50) came out at 2.6 nM on human FPR2 and 290 nM at human FPR1.

Take `CP(C)(=O)c1ccccc1-c1ccc(N2CC[C@@H](NC(=O)Nc3ncc(C(F)(F)F)cc3F)C2=O)c(F)c1F` [Example 55]: the concentration giving a half-maximal response (EC50) was 22 nM at human FPR2 and over 10000 nM on human FPR1.

On to `O=C(Nc1ccc(Cl)cc1)N[C@@H]1CCN(c2ccc(-c3ccccc3CO)c(F)c2F)C1=O` [Example 3], for which the EC50 was determined as 1.1 nM on human FPR2 and 220 nM on human FPR1.

For `CS(=O)(=O)Nc1ccccc1-c1ccc(N2CC[C@@H](NC(=O)Nc3cnc(C(F)(F)F)cn3)C2=O)c(F)c1F` [Example 18], the results for the EC50 at human FPR2 and on human FPR1 were 20 nM and 2100 nM, respectively.

Turning to `CS(=O)(=O)Nc1ccccc1-c1ccc(N2CC[C@@H](NC(=O)Nc3ccc(C(F)(F)F)cc3F)C2=O)c(C2CC2)c1` [Example 43], the EC50 on human FPR2 was determined as 3.3 nM; at human FPR1, 120 nM.

As to `CP(C)(=O)c1ccccc1-c1cc(F)c(N2CC[C@@H](NC(=O)Nc3ccc(Cl)cc3F)C2=O)c(F)c1` [Example 53], the EC50 at human FPR2 stood at 7.8 nM; on human FPR1, 2700 nM.

For `CC(C)c1cc(-c2ccccc2S(C)(=O)=O)ccc1N1CC[C@@H](NC(=O)Nc2ccc(Cl)cc2F)C1=O` [Example 40], the EC50 at human FPR2 amounted to 4.6 nM; at human FPR1, 50 nM.

For `N#Cc1ccccc1-c1ccc(N2CC[C@@H](NC(=O)Nc3ccc(Cl)cc3F)C2=O)c(F)c1F` [Example 9], the EC50 at human FPR2 turned out to be 2.1 nM; on human FPR1, 31 nM.

As to `CS(=O)(=O)c1ccccc1-c1ccc(N2CC[C@@H](NC(=O)Nc3ccc(Cl)cn3)C2=O)c(F)c1F` [Example 24], the EC50 on human FPR2 worked out at 22 nM; at human FPR1, 1400 nM.

In the case of `CP(C)(=O)c1c(F)cccc1-c1ccc(N2CC[C@@H](NC(=O)Nc3ccc(C(F)(F)F)cc3F)C2=O)c(F)c1F` [Example 72], the EC50 on human FPR2 was determined as 0.61 nM; at human FPR1, 54 nM.

Turning to `CCP(=O)(CC)c1ccccc1-c1ccc(N2CC[C@@H](NC(=O)Nc3ncc(Cl)cc3F)C2=O)c(F)c1F` [Example 67], the figures for the half-maximal effective concentration (EC50) on human FPR2 and on human FPR1 were 2.48 nM and 1300 nM, respectively.

Consider `CP(C)(=O)c1ccccc1-c1ccc(N2CC[C@@H](NC(=O)Nc3ccc(Cl)cc3F)C2=O)c(C2CC2)c1F` [Example 117], for which the EC50 on human FPR2 came to 13 nM; at human FPR1, 84 nM.

As for `CP(C)(=O)c1ccccc1-c1ccc(N2C(=O)[C@H](NC(=O)Nc3ccc(Cl)cc3F)C[C@H]2CO)c(F)c1F` [Example 112, 1-(4-Chloro-2-fluorophenyl)-3-((3R,5S)-1-(2′-(dimethylphosphoryl)-2,3-difluoro-[1,1′-biphenyl]-4-yl)-5-(hydroxymethyl)-2-oxopyrrolidin-3-yl)urea], the results for the EC50 on human FPR2 and at human FPR1 were 0.27 nM and 390 nM, respectively.

In the case of `CP(C)(=O)c1ccccc1-c1ccc(N2CC[C@@H](NC(=O)Nc3ccc(C(F)(F)F)cc3F)C2=O)c(F)c1Cl` [Example 77], the EC50 on human FPR2 was found to be 1.2 nM; at human FPR1, 79 nM.

With `COc1ccc(NC(=O)N[C@@H]2CCN(c3ccc(-c4ccccc4P(C)(C)=O)c(F)c3F)C2=O)c(F)c1` [Example 71], the EC50 on human FPR2 came out at 2.1 nM; at human FPR1, 1280 nM.

Take `CC(C)c1cc(-c2ccccc2CO)ccc1N1CC[C@@H](NC(=O)Nc2ccc(Cl)cc2F)C1=O` [Example 38]: the EC50 at human FPR2 came out at 3.5 nM; on human FPR1 it was 42 nM.

As for `COc1ccc(NC(=O)N[C@@H]2CCN(c3ccc(-c4ccccc4P(C)(C)=O)c(F)c3F)C2=O)cc1` [Example 65], the EC50 was found to be 1.2 nM at human FPR2 and 2600 nM on human FPR1.

In the case of `CS(=O)(=O)Nc1ccccc1-c1ccc(N2CC[C@@H](NC(=O)Nc3ccc(C(F)(F)F)nc3)C2=O)cc1` [Example 20], the EC50 is 24 nM at human FPR2 and over 10000 nM at human FPR1.

As to `CS(=N)(=O)c1ccccc1-c1ccc(N2CC[C@@H](NC(=O)Nc3ccc(C(F)(F)F)cc3F)C2=O)c(F)c1F` (stereo partly shown) [Example 66], the figures for the EC50 on human FPR2 and at human FPR1 were 4.9 nM and 580 nM, respectively.

Take `CP(C)(=O)c1ccccc1-c1ccc(N2C(=O)[C@H](NC(=O)Nc3ccc(C(F)(F)F)cc3F)C[C@H]2CO)c(F)c1F` [Example 114]: the figures for the EC50 on human FPR2 and on human FPR1 were 0.86 nM and 270 nM, respectively.

On to `CCP(=O)(CC)c1ncccc1-c1ccc(N2CC[C@@H](NC(=O)Nc3ccc(C(F)(F)F)cc3F)C2=O)c(F)c1F` [Example 100], for which the values for the EC50 at human FPR2 and at human FPR1 were 2 nM and 92 nM, respectively.
